The values that follow come from patent US8389511B2, “Bicyclic heterocyclic derivative” (Dainippon Sumitomo Pharma Co., Ltd., priority 2007, dated 2013).

For this test, the target named is T1, Recombinant human renin (Homo sapiens, UniProt P00797).
T1 sequence (P00797 67-406): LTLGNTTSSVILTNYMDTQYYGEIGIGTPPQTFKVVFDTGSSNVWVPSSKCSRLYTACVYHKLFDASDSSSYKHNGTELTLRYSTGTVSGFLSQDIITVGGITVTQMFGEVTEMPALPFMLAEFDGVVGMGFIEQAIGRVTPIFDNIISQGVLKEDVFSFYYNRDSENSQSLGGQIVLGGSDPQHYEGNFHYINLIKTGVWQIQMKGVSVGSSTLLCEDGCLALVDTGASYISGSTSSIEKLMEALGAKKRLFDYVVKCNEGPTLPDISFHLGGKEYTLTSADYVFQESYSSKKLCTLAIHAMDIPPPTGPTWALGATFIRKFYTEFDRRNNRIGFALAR
Briefly: In vitro renin inhibitory activity assay (fluorescence, EDANS/DABCYL peptide substrate). To be noted: recombinant human renin (50 ng), 0.1M HEPES buffer pH 7.4, substrate 4 μM, 37° C., one hour, fluorescence 340/500 nm. The format is biochemical. As to the method:
In Vitro Renin Inhibitory Activity Assay
Recombinant human renin (50 ng) was reacted in 0.1M HEPES buffer (pH 7.4) containing 0.1M NaCl, 1 mM EDTA and 0.1 mg/mL BSA together with a substrate and a test compound at 37° C. for one hour. As the substrate, Arg-Glu(EDANS)-[…]DABCYL)-Arg or DABCYL-γ-Abu-[…]EDANS was added in such an amount so that the final concentration thereof became 4 μM. The elevated fluorescence intensity at the exciting wavelength 340 nm and the fluorescence wavelength 500 nm was measured by a fluorescence plate reader.

Molecules are shown by their SMILES. Counter-ions that a name gives are not always drawn.

The IC50 is the concentration needed to halve the response being measured. As to `COCCCN1C(=O)C(C)(C)Oc2cc(Br)c(C(=O)N(C(C)C)[C@@H]3CCCNC3)cc21` [Example 1, 7-Bromo-N-isopropyl-4-(3-methoxypropyl)-2,2-dimethyl-3-oxo-N-[(3R)-piperidin-3-yl]-3,4-dihydro-2H-1,4-benzoxazine-6-carboxamide hydrochloride], the concentration for half-maximal inhibition (IC50) was 0.7 nM. With `COCCCN1C(=O)[C@@H](C)Oc2cc(C)c(C(=O)N(C(C)C)[C@@H]3CCCNC3)cc21` [Example 18] the figure was 11 nM; with `COC(=O)NCCN1C(=O)[C@](C)(c2cc(F)cc(F)c2)Oc2cc(Cl)c(C(=O)N(C(C)C)[C@@H]3CCCNC3)cc21` [Example 30], 0.8 nM; with `COC(=O)NCCN1C(=O)[C@](C)(c2cc(F)cc(F)c2)Oc2cc(Br)c(C(=O)N(C(C)C)[C@@H]3CCCNC3)cc21` [Example 36], 0.2 nM.

Consider `COCCCCN1C(=O)C2(CCOCC2)Oc2cc(C)c(C(=O)N(C(C)C)[C@@H]3CCCNC3)cc21` [Example 48], for which the half-inhibitory concentration (IC50) was determined as 8.4 nM. `COCCCCN1C(=O)[C@@H](C)Oc2cc(C(F)(F)F)c(C(=O)N(C(C)C)[C@@H]3CCCNC3)cc21` [Example 66]: the IC50 was found to be 0.7 nM. Under `CCc1cc2c(cc1C(=O)N(C(C)C)[C@@H]1CCCNC1)N(CCCCOC)C(=O)C(C)(C)O2` [Example 79] stands 19.2 nM; under `CCc1cc2c(cc1C(=O)N(C(C)C)[C@@H]1CCCNC1)N(CCNC(=O)OC)C(=O)C(C)(C)O2` [Example 80], 4.6 nM; under `COCCCCN1C(=O)C(C)(C)Oc2cc(C#N)c(C(=O)N(C(C)C)[C@@H]3CCCNC3)cc21` [Example 162], 4 nM.

`COCCCCN1C(=O)C(C)(C)Oc2cc(C(F)(F)F)c(C(=O)N(C(C)C)C3CCNC3)cc21` (centres unmarked) [Example 201, N-Isopropyl-4-(4-methoxybutyl)-2,2-dimethyl-3-oxo-N-pyrrolidine-3-yl-7-(trifluoromethyl)-3,4-dihydro-2H-1,4-benzoxazine-6-carboxamide hydrochloride]: the IC50 was determined as 82 nM.

As to `CCC(=O)NCCN1C(=O)C(C)(C)Oc2cc(C(F)(F)F)c(C(=O)N(C3CCC3)[C@@H]3CCCNC3)cc21` [Example 202], the IC50 was found to be 1.3 nM. Under `COCCCCN1C(=O)C(C2CCOCC2)Oc2cc(C(F)(F)F)c(C(=O)N(C(C)C)C3CCCNC3)cc21` (centres unmarked) [Example 205] stands 17.4 nM.

With `COC(=O)NCCN1C(=O)C(C)(COc2ccccc2)Oc2cc(C(F)(F)F)c(C(=O)N(C(C)C)C3CCCNC3)cc21` (centres unmarked) [Example 209], the IC50 worked out at 2 nM. In the case of `COC(=O)NCCN1C(=O)C(C)(COc2cccc(OC)c2)Oc2cc(C(F)(F)F)c(C(=O)N(C(C)C)C3CCCNC3)cc21` (centres unmarked) [Example 210], the IC50 was 1.2 nM. With `COCCCCN1C(=O)C(C)(COCCOC)Oc2cc(C(F)(F)F)c(C(=O)N(C(C)C)C3CCCNC3)cc21` (centres unmarked) [Example 212] the figure was 1.7 nM; with `CCOC(=O)COCC1(C)Oc2cc(C(F)(F)F)c(C(=O)N(C(C)C)C3CCCNC3)cc2N(CCCCOC)C1=O` (centres unmarked) [Example 216], 1.1 nM.

Take `COCCCCN1C(=O)C(C)(CO)Oc2cc(C(F)(F)F)c(C(=O)N(C(C)C)C3CCCNC3)cc21` (centres unmarked) [Example 217]: the IC50 is 1.8 nM.

Regarding `CCC(=O)NCCN1C(=O)C(C)(c2cccc(C#N)c2)Oc2cc(C(F)(F)F)c(C(=O)N(C(C)C)C3CCCNC3)cc21` (centres unmarked) [Example 224], the IC50 turned out to be 0.6 nM. On to `CCC(=O)NCCN1C(=O)C(C)(c2cc(C#N)ccc2F)Oc2cc(C(F)(F)F)c(C(=O)N(C(C)C)C3CCCNC3)cc21` (centres unmarked) [Example 228], for which the IC50 came to 1.5 nM. With `CCC(=O)NCCN1C(=O)C(C)(c2cccc(OS(C)(=O)=O)c2)Oc2cc(C(F)(F)F)c(C(=O)N(C(C)C)C3CCCNC3)cc21` (centres unmarked) [Example 229] the figure was 0.3 nM; with `CCC(=O)NCCN1C(=O)C(C)(C)Oc2cc(C(F)(F)F)c(C(=O)N(C(C)C)C3CNCCC3c3cccc(-c4ccccc4)c3)cc21` (centres unmarked) [Example 238], 39 nM.

Consider `CCC(=O)NCCN1C(=O)C(C)(C)Oc2cc(C(F)(F)F)c(C(=O)N(CC)C3CNCCC3c3ccccc3)cc21` (centres unmarked) [Example 243], for which the half-inhibitory concentration (IC50) is 2.2 nM. With `COCC(O)CCN1C(=O)C(C)(C)Oc2cc(C(F)(F)F)c(C(=O)N(C(C)C)C3CCCNC3)cc21` (centres unmarked) [Example 251] the figure was 23.8 nM; with `COCC(=O)CCN1C(=O)C(C)(C)Oc2cc(C(F)(F)F)c(C(=O)N(C(C)C)C3CCCNC3)cc21` (centres unmarked) [Example 252], 1.5 nM; with `COCCCCN1C(=O)C(C)(C)c2cc(Cl)c(C(=O)N(C(C)C)[C@@H]3CCCNC3)cc21` [Example 254, 5-Chloro-3,3-dimethyl-N-isopropyl-1-(4-methoxybutyl)-2-oxo-N-[(3R)-piperidin-3-yl] indoline-6-carboxamide hydrochloride], 14 nM.

Take `CCC(=O)NCCN1C(=O)C(C)(C)c2cc(Cl)c(C(=O)N(C(C)C)[C@@H]3CCCNC3)cc21` [Example 255, 5-Chloro-N-isopropyl-3,3-dimethyl-2-oxo-N-[(3R)-piperidin-3-yl]-1-[2-(propionylamino)ethyl]-indoline-6-carboxamide hydrochloride]: the 50% inhibitory concentration (IC50) was found to be 20 nM.

For the molecule `CCn1c(=O)n(CCCCOC)c2cc(C(=O)N(C(C)C)[C@@H]3CCCNC3)c(C(F)(F)F)cc21` [Example 261], the IC50 is 15 nM.

As to `CCC(=O)NCCn1c(=O)n(CC)c2cc(C(F)(F)F)c(C(=O)N(C(C)C)[C@@H]3CCCNC3)cc21` [Example 262], the IC50 amounted to 30 nM. Take `CCC(=O)NCCN1C(=O)C(C)(C)Oc2cc(F)c(C(=O)N(CC)[C@H]3CNCC[C@@H]3c3cccc(OC)c3)cc21` [Example 265]: the IC50 is 2.2 nM.
